Reference: patent publication US20260124214A1, “HETEROCYCLIC COMPOUNDS FOR USE IN THE TREATMENT OF CANCER” (ARTIOS PHARMA LIMITED, priority 2021, published 2026)
Where a name gives a salt, the structure may show the parent alone.

Biological target: T1, Human Polθ polymerase domain (aa1820-2590) (Homo sapiens, UniProt O75417)
T1 construct: Human Polθ polymerase domain (aa1820-2590) was expressed in E. Coli; made in house; host or cells: E. coli
T1 sequence (O75417 1820-2590): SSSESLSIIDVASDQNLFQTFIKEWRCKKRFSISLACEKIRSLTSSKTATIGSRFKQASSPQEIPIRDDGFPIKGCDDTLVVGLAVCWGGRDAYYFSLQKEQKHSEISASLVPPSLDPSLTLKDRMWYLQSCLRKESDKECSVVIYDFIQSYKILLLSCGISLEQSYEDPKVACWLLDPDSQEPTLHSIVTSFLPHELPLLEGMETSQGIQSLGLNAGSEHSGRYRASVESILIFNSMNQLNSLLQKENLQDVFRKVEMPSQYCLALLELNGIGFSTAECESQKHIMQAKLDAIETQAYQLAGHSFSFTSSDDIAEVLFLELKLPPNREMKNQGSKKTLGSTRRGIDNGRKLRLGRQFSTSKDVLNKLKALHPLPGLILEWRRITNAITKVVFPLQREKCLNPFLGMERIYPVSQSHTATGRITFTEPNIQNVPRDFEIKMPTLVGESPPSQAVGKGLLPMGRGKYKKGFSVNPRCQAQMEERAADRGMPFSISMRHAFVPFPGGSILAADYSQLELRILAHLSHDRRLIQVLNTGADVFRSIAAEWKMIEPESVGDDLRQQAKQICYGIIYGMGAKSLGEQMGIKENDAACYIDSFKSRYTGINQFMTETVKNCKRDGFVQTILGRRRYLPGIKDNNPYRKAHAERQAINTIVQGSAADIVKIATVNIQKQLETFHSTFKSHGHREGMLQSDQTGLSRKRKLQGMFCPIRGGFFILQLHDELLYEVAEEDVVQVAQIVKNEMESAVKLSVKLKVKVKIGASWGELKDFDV
Test: Polθ Polymerase Domain WT KI Assay (PicoGreen)
Assay type: biochemical
Conditions: 100 nM DNA substrate, 0.156 nM Polθ, initial rates vs inhibitor concentration
Procedure, shortened: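 E. coli-expressed human Polθ polymerase domain (aa1820-2590) on annealed DNA II Short/Long primer-template (1.2:1), in 25 mM Tris pH 7.5, NaCl, 5% glycerol, 0.01% Triton X-100, 0.1 mg/ml BSA, 1 mM DTT, 1% DMSO. EDTA-quenched timepoints to 180 min, PicoGreen fluorescence. Initial rates vs inhibitor concentration fitted four-parameter for KI.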

Row | Compound | Ki [nM]
1 | Cc1cc(C(F)(F)F)cc(N2C(=O)C[C@@H]3CN(CCN4C[C@@H]5C[C@H]4CN5C)c4c(C)cccc4N(C)C(=O)[C@H]32)n1 [Example 62, (3aR,11aS)-6,10-Dimethyl-5-(2-((1S,4S)-5-methyl-2,5-diazabicyclo[2.2.1]heptan-2-yl)ethyl)-1-(6-methyl-4-(trifluoromethyl)pyridin-2-yl)-1,3a,4,5,10,11a-hexahydro-2H-benzo[b]pyrrolo[2,3-f][1,4]diazocine-2,11(3H)-dione dihydrochloride] | 1.01
2 | Cc1cc(C(F)(F)F)cc(N2C(=O)C[C@@H]3CN(Cc4ccncc4)c4c(Cl)cccc4N(C)C(=O)[C@H]32)n1 [Example 94, (3aR,11aS)-6-Chloro-10-methyl-1-(6-methyl-4-(trifluoromethyl)pyridin-2-yl)-5-(pyridin-4-ylmethyl)-1,3a,4,5,10,11a-hexahydro-2H-benzo[b]pyrrolo[2,3-f][1,4]diazocine-2,11(3H)-dione] | 3.29
3 | Cc1cc(C(F)(F)F)cc(N2C(=O)C[C@@H]3CN(CC(=O)N4CCN(C)CC4)c4c(C)cccc4N(C)C(=O)[C@H]32)n1 [Example 93, (3aR,11aS)-6,10-Dimethyl-1-(6-methyl-4-(trifluoromethyl)pyridin-2-yl)-5-(2-(4-methylpiperazin-1-yl)-2-oxoethyl)-1,3a,4,5,10,11a-hexahydro-2H-benzo[b]pyrrolo[2,3-f][1,4]diazocine-2,11(3H)-dione] | 1.19
4 | Cc1cc(C(F)(F)F)cc(N2C(=O)CC3CN(C4CC(OCc5ccccc5)C4)c4c(F)cccc4N(C)C(=O)C32)n1 (single isomer, unassigned) [Example 92a] | 9.06
5 | Cc1cc(C(F)(F)F)cc(N2C(=O)C[C@@H]3CN(CCN4CCN(C)C[C@H]4CO)c4c(C)cccc4N(C)C(=O)[C@H]32)n1 [Example 64, (3aR,11aS)-5-(2-((S)-2-(Hydroxymethyl)-4-methylpiperazin-1-yl)ethyl)-6,10-dimethyl-1-(6-methyl-4-(trifluoromethyl)pyridin-2-yl)-1,3a,4,5,10,11a-hexahydro-2H-benzo[b]pyrrolo[2,3-f][1,4]diazocine-2,11(3H)-dione dihydrochloride] | 0.816
6 | Cc1cc(C(F)(F)F)cc(N2C(=O)C[C@@H]3CN(CCCN4CCN(C)CC4)c4c(Cl)cccc4N(C)C(=O)[C@H]32)n1 [Example 129, (3aR,11aS)-6-Chloro-10-methyl-1-(6-methyl-4-(trifluoromethyl)pyridin-2-yl)-5-(3-(4-methylpiperazin-1-yl)propyl)-1,3a,4,5,10,11a-hexahydro-2H-benzo[b]pyrrolo[2,3-f][1,4]diazocine-2,11(3H)-dione] | 1.23
7 | Cc1cc(C(F)(F)F)cc(N2C(=O)C[C@@H]3CN(c4cccnc4)c4c(F)cccc4N(C)C(=O)[C@H]32)n1 [Example 138, (3aR,11aS)-6-Fluoro-10-methyl-1-(6-methyl-4-(trifluoromethyl)pyridin-2-yl)-5-(pyridin-3-yl)-1,3a,4,5,10,11a-hexahydro-2H-benzo[b]pyrrolo[2,3-f][1,4]diazocine-2,11(3H)-dione] | 645
8 | Cc1cc(C(F)(F)F)cc(N2C(=O)C[C@@H]3CN(Cc4ccc(C5CCCN5C)cc4)c4c(F)cccc4N(C)C(=O)[C@H]32)n1 (single isomer, unassigned) [Example 125a, hydrochloride] | 7.92
9 | Cc1cc(C(F)(F)F)cc(N2C(=O)C[C@@H]3CN(Cc4cn5c(n4)C(C)N(C)CC5)c4c(C)cccc4N(C)C(=O)[C@H]32)n1 (single isomer, unassigned) [Example 116a] | 0.63
10 | Cc1cc(C(F)(F)F)cc(N2C(=O)C[C@@H]3CN(C[C@@H](O)CN(C)C)c4c(Cl)cccc4N(C)C(=O)[C@H]32)n1 (racemic) [Example 132a, (3aR,11aS)-6-chloro-5-((S/R)-3-(dimethylamino)-2-hydroxypropyl)-10-methyl-1-(6-methyl-4-(trifluoromethyl)pyridin-2-yl)-1,3a,4,5,10,11a-hexahydro-2H-benzo[b]pyrrolo[2,3-f][1,4]diazocine-2,11(3H)-dione] | 6.27
11 | CC(=O)N1CCN(CCN2C[C@H]3CC(=O)N(c4cc(C(F)(F)F)cc(C)n4)[C@@H]3C(=O)N(C)c3cccc(Cl)c32)[C@@H](C)C1 [Example 11, (3aR,11aS)-5-(2-((S)-4-Acetyl-2-methylpiperazin-1-yl)ethyl)-6-chloro-10-methyl-1-(6-methyl-4-(trifluoromethyl)pyridin-2-yl)-1,3a,4,5,10,11a-hexahydro-2H-benzo[b]pyrrolo[2,3-f][1,4]diazocine-2,11(3H)-dione] | 1.52
12 | Cc1cc(C(F)(F)F)cc(N2C(=O)C[C@@H]3CN(CCN4CC[C@@H](C(=O)N(C)C)C4)c4c(C)cccc4N(C)C(=O)[C@H]32)n1 [Example 73, (R)-1-(2-((3aR,11aS)-6,10-Dimethyl-1-(6-methyl-4-(trifluoromethyl)pyridin-2-yl)-2,11-dioxo-1,2,3,3a,4,10,11,11a-octahydro-5H-benzo[b]pyrrolo[2,3-f][1,4]diazocin-5-yl)ethyl)-N,N-dimethylpyrrolidine-3-carboxamide] | 8.12
13 | Cc1cc(C(F)(F)F)cc(N2C(=O)C[C@@H]3CN(C[C@H]4CNC[C@@H]4O)c4c(F)cccc4N(C)C(=O)[C@H]32)n1 (relative stereo) [Example 91, (3aR,11aS)-6-Fluoro-5-(((rel-trans)-4-hydroxypyrrolidin-3-yl)methyl)-10-methyl-1-(6-methyl-4-(trifluoromethyl)pyridin-2-yl)-1,3a,4,5,10,11a-hexahydro-2H-benzo[b]pyrrolo[2,3-f][1,4]diazocine-2,11(3H)-dione] | 17.3

Now from value to molecule:

Row | Ki [nM] | Compound
14 | 2.17 | Cc1cc(C(F)(F)F)cc(N2C(=O)C[C@@H]3CN(C[C@H]4COCCN4)c4c(Cl)cccc4N(C)C(=O)[C@H]32)n1 (racemic) [Example 108a, (3aR,11aS)-6-Chloro-10-methyl-1-(6-methyl-4-(trifluoromethyl)pyridin-2-yl)-5-(((S/R)-morpholin-3-yl)methyl)-1,3a,4,5,10,11a-hexahydro-2H-benzo[b]pyrrolo[2,3-f][1,4]diazocine-2,11(3H)-dione]
15 | 0.711 | Cc1cc(C(F)(F)F)cc(N2C(=O)C[C@@H]3CN(CCN4CCOC[C@@H]4C)c4c(Cl)cccc4N(C)C(=O)[C@H]32)n1 [Example 25, (3aR,11aS)-6-Chloro-10-methyl-1-(6-methyl-4-(trifluoromethyl)pyridin-2-yl)-5-(2-((S)-3-methylmorpholino)ethyl)-1,3a,4,5,10,11a-hexahydro-2H-benzo[b]pyrrolo[2,3-f][1,4]diazocine-2,11(3H)-dione]
16 | 3.37 | Cc1cc(C(F)(F)F)cc(N2C(=O)C[C@@H]3CN(CC4CCCCN4C)c4c(Cl)cccc4N(C)C(=O)[C@H]32)n1 (single isomer, unassigned) [Example 117a]
17 | 2.98 | Cc1cc(C(F)(F)F)cc(N2C(=O)C[C@@H]3CN(C[C@@H]4CCCCN4)c4c(Cl)cccc4N(C)C(=O)[C@H]32)n1 (racemic) [Example 105b, (3aR,11aS)-6-Chloro-10-methyl-1-(6-methyl-4-(trifluoromethyl)pyridin-2-yl)-5-(((S/R)-piperidin-2-yl)methyl)-1,3a,4,5,10,11a-hexahydro-2H-benzo[b]pyrrolo[2,3-f][1,4]diazocine-2,11(3H)-dione]
18 | 1.77 | Cc1cc(C(F)(F)F)cc(N2C(=O)C[C@@H]3CN(C[C@H]4CCNC[C@H]4C#N)c4c(Cl)cccc4N(C)C(=O)[C@H]32)n1 (relative stereo) [Example 102, (rel-cis)-4-(((3aR,11aS)-6-Chloro-10-methyl-1-(6-methyl-4-(trifluoromethyl)pyridin-2-yl)-2,11-dioxo-1,2,3,3a,4,10,11,11a-octahydro-5H-benzo[b]pyrrolo[2,3-f][1,4]diazocin-5-yl)methyl)piperidine-3-carbonitrile hydrochloride]
19 | 1.08 | Cc1cc(C(F)(F)F)cc(N2C(=O)C[C@@H]3CN(CC4COCCN4C)c4c(Cl)cccc4N(C)C(=O)[C@H]32)n1 (single isomer, unassigned) [Example 119b]
20 | 1.75 | Cc1cc(C(F)(F)F)cc(N2C(=O)C[C@@H]3CN(C[C@H]4CCNC4)c4c(Cl)cccc4N(C)C(=O)[C@H]32)n1 [Example 100, (3aR,11aS)-6-Chloro-10-methyl-1-(6-methyl-4-(trifluoromethyl)pyridin-2-yl)-5-(((S)-pyrrolidin-3-yl)methyl)-1,3a,4,5,10,11a-hexahydro-2H-benzo[b]pyrrolo[2,3-f][1,4]diazocine-2,11(3H)-dione hydrochloride]
